In this test the target is Kv1.1 (Homo sapiens, UniProt Q09470). Kind of test: two-electrode voltage clamp in Xenopus oocytes, reference opener. It counts as cell-based. A general note: In two-electrode clamp one electrode senses voltage and the other passes current.

Broadly, the EC50 is the midpoint of the concentration-response curve. Read a low EC50 as greater potency.

Chain of Kv1.1 (Q09470 whole entry): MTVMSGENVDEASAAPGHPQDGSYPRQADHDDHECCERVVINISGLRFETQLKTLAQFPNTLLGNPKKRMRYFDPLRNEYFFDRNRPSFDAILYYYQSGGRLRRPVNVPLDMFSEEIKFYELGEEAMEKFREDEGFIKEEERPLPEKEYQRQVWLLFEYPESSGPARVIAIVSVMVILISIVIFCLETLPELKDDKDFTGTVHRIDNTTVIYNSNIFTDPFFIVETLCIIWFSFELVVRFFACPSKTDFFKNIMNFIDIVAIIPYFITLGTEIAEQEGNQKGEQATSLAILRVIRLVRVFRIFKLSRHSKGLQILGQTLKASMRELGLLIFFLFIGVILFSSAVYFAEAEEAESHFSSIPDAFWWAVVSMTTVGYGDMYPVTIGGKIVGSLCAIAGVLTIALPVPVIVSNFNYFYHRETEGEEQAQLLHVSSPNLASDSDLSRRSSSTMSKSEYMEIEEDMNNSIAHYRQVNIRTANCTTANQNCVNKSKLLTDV

Take `O=C(O)c1cccnc1Nc1cccc(C(F)(F)F)c1` [niflumic acid]: the EC50 is 347 µM.

The values are drawn from paper PMC11745346 (Proceedings of the National Academy of Sciences of the …, 2024).
